From DBAASP
≈ marks a conversion by molar mass, not a printed value. Where “and” joins values, the source holds several entries; their conditions need not be identical. Equal entries are not always repeated.

How the values were obtained:
Test in all cases: ≥ marks a high value that may be exact or a test limit, other limits are often not marked, values filed in µg/mL are converted to µM
[1] = test system: Escherichia coli ATCC 25922
[2] = test system: Staphylococcus aureus ATCC 25923
[3] = test system: Pseudomonas aeruginosa ATCC 27853
[4] = test system: Staphylococcus aureus ATCC 29213
Escherichia coli = test system: Escherichia coli
Staphylococcus aureus = test system: Staphylococcus aureus
Pseudomonas aeruginosa = test system: Pseudomonas aeruginosa

SMILES | MIC [1] | MIC [2] [µM] | MIC [3] [µM] | also measured
CC(C)C[C@H](NC(=O)[C@H](Cc1ccccc1)NC(=O)[C@@H]1CCCN1C(=O)[C@H](Cc1c[nH]c2ccccc12)NC(=O)[C@H](Cc1c[nH]c2ccccc12)NC(=O)[C@H](Cc1c[nH]c2ccccc12)NC(=O)[C@@H]1CCCN1C(=O)[C@H](Cc1ccccc1)NC(=O)[C@H](CCCCN)NC(=O)[C@H](CCCCN)NC(=O)[C@@H](N)C(C)C)C(=O)N[C@@H](CCCCN)C(=O)N[C@@H](CCCCN)C(N)=O [VKKFPWWWPFLKK] | 16 µM (≈ 28.6 µg/mL) | – | – | MIC (Escherichia coli): 11.2 µM (≈ 20 µg/mL); MIC (Staphylococcus aureus): 5.59 µM (≈ 9.99 µg/mL)
CC(C)[C@H](NC(=O)[C@H](Cc1c[nH]c2ccccc12)NC(=O)[C@H](C)NC(=O)[C@@H](N)CCCN=C(N)N)C(=O)N[C@@H](C)C(=O)N[C@@H](Cc1c[nH]c2ccccc12)C(=O)N[C@@H](CCCN=C(N)N)C(=O)N[C@@H](CC(N)=O)C(=O)N[C@@H](CCCN=C(N)N)C(N)=O [RAWVAWRNR] | 412 µM (≈ 500 µg/mL) | – | – | MIC [4]: 206 µM (≈ 250 µg/mL)
CC[C@H](C)[C@H](NC(=O)[C@H](Cc1ccccc1)NC(=O)[C@H](CO)NC(=O)[C@H](CCCCN)NC(=O)[C@H](Cc1c[nH]c2ccccc12)NC(=O)[C@@H](N)CCCCN)C(=O)N[C@@H](CCCCN)C(=O)N[C@@H](CCCCN)C(=O)N[C@@H](CC(C)C)C(=O)N[C@H](C(=O)N[C@@H](CO)C(=O)N[C@@H](CCCCN)C(=O)N[C@@H](Cc1ccccc1)C(=O)N[C@@H](CC(C)C)C(=O)N[C@@H](Cc1cnc[nH]1)C(=O)N[C@@H](CO)C(=O)N[C@@H](C)C(=O)N[C@@H](CCCCN)C(=O)N[C@@H](CCCCN)C(=O)N[C@@H](CC(N)=O)C(N)=O)[C@@H](C)O [KWKSFIKKLTSKFLHSAKKN] | – | – | – | MIC (Pseudomonas aeruginosa): 2.58 µM (≈ 6.25 µg/mL)
CC[C@H](C)[C@H](NC(=O)[C@@H]1CCCN1C(=O)[C@H](CC(C)C)NC(=O)[C@@H](N)Cc1ccccc1)C(=O)N[C@@H](C)C(=O)N[C@@H](CO)C(=O)N[C@@H](CC(C)C)C(=O)N[C@@H](CC(C)C)C(=O)NCC(=O)N[C@@H](CCCCN)C(=O)N[C@@H](Cc1ccc(O)cc1)C(=O)N[C@@H](CC(C)C)C(=O)O [FLPIASLLGKYL] | – | – | – | MIC (Staphylococcus aureus): > 200 µM
CC[C@H](C)[C@H](NC(=O)[C@@H](N)Cc1ccccc1)C(=O)N[C@@H](CCCN=C(N)N)C(=O)N[C@@H](CO)C(=O)N[C@@H](CC(C)C)C(=O)N[C@@H](Cc1ccccc1)C(=O)N[C@@H](Cc1ccccc1)C(=O)N[C@@H](Cc1ccccc1)C(N)=O [FIRSLFFF] | > 100 µM | > 100 | – | –
NCC(=O)N[C@@H](CCCN=C(N)N)C(=O)N[C@@H](CCCN=C(N)N)C(=O)N1CCC[C@H]1C(=O)N[C@@H](CCCN=C(N)N)C(=O)N1CCC[C@H]1C(=O)N[C@@H](CCCN=C(N)N)C(=O)N1CCC[C@H]1C(=O)N[C@@H](CCCN=C(N)N)C(=O)N1CCC[C@H]1C(=O)N[C@@H](Cc1ccccc1)C(=O)N[C@@H](Cc1ccccc1)C(=O)N[C@@H](Cc1ccccc1)C(=O)N[C@@H](Cc1ccccc1)C(=O)O [GRRPRPRPRPFFFF] | 160 µM (≈ 293 µg/mL) | – | 80 (≈ 147 µg/mL) | MIC [4]: 40 µM (≈ 73.3 µg/mL)
CC[C@H](C)[C@H](NC(=O)[C@H](CC(C)C)NC(=O)[C@@H](NC(=O)[C@H](CC(C)C)NC(=O)[C@H](CO)NC(=O)[C@H](CCCCN)NC(=O)[C@@H](NC(=O)[C@H](CC(C)C)NC(=O)[C@H](CCCCN)NC(=O)[C@H](CC(C)C)NC(=O)[C@H](CO)NC(=O)[C@H](CCCN=C(N)N)NC(=O)[C@H](CCCCN)NC(=O)[C@@H](NC(=O)[C@H](Cc1ccccc1)NC(=O)[C@@H](N)CO)[C@@H](C)CC)[C@@H](C)CC)C(C)C)C(=O)N[C@@H](CCCCN)C(=O)O [SFIKRSLKLIKSLVLIK] | – | – | – | MIC (Staphylococcus aureus): 4 µM (≈ 7.95 µg/mL)
NC(=O)[C@H](Cc1c[nH]c2ccccc12)NC(=O)[C@H](CCCN=C(N)N)NC(=O)[C@H](Cc1ccc(O)cc1)NC(=O)[C@H](CCCN=C(N)N)NC(=O)[C@@H](N)Cc1c[nH]c2ccccc12 [WRYRW] | 115 µM (≈ 99.9 µg/mL) | 57.7 (≈ 49.9 µg/mL) | – | –
CC[C@H](C)[C@H](NC(=O)[C@H](CCSC)NC(=O)[C@H](C)NC(=O)[C@@H]1CCCN1C(=O)[C@@H](NC(=O)[C@@H](NC(=O)[C@H](CCCCN)NC(=O)[C@@H](NC(=O)[C@H](CC(C)C)NC(=O)CNC(=O)CNC(=O)[C@@H](N)CC(C)C)[C@@H](C)CC)[C@@H](C)CC)C(C)C)C(=O)N[C@H]1CSSC[C@@H](C(=O)O)NC(=O)[C@H](CCCCN)NC(=O)[C@H](CCCCN)NC(=O)[C@H]([C@@H](C)O)NC(=O)[C@H](C(C)C)NC(=O)[C@H](C)NC1=O [LGGLIKIVPAMICAVTKKC] | 131 µM (≈ 256 µg/mL) | – | > 131 | MIC [4]: 131 µM (≈ 256 µg/mL)
CC(C)C[C@H](NC(=O)[C@H](CC(C)C)NC(=O)[C@H](CC(N)=O)NC(=O)[C@H](CCCCN)NC(=O)[C@H](CC(C)C)NC(=O)[C@H](CC(N)=O)NC(=O)[C@@H](N)C(C)C)C(=O)N[C@@H](CCCN=C(N)N)C(=O)O [VNLKNLLR] | – | – | 32 (≈ 31 µg/mL) | –
CC[C@H](C)[C@H](NC(=O)[C@H](CCCN=C(N)N)NC(=O)[C@@H](N)CCCCN)C(=O)N[C@@H](CCCCN)C(=O)N[C@H](C(=O)N[C@@H](CC(C)C)C(=O)N[C@@H](CC(C)C)C(N)=O)[C@@H](C)O [KRIKTLL] | > 70 µM | > 70 | – | –

Second part, led by results:

MIC [1] | MIC [2] [µM] | MIC [3] [µM] | SMILES | also measured
13.9 µM and 27.8 µM | – | – | CC(C)C[C@H](NC(=O)[C@H](CC(C)C)NC(=O)[C@H](CCCCN)NC(=O)[C@H](CCCCN)NC(=O)[C@H](CC(C)C)NC(=O)[C@H](Cc1ccccc1)NC(=O)[C@H](CCCCN)NC(=O)[C@H](CC(C)C)NC(=O)[C@@H](N)Cc1ccccc1)C(N)=O [FLKFLKKLL] | –
24.6 µM (≈ 31.9 µg/mL) | 49 (≈ 63.6 µg/mL) | – | CC(C)C[C@H](NC(=O)CNC(=O)[C@H](CCCCN)NC(=O)CNC(=O)[C@H](C)NC(=O)[C@H](C)N)C(=O)N[C@H](C(=O)N[C@@H](CO)C(=O)N[C@@H](CC(N)=O)C(=O)N[C@@H](CC(C)C)C(=O)N[C@@H](CC(C)C)C(=O)N[C@@H](CCC(=O)O)C(=O)N[C@@H](CCCCN)C(N)=O)C(C)C [AAGKGLVSNLLEK] | –
> 55.3 µM | – | > 55.3 | CC[C@H](C)[C@H](NC(=O)[C@H](CCCCN)NC(=O)[C@H](CCCCN)NC(=O)[C@@H](N)CCC(N)=O)C(=O)N[C@@H](CCCN=C(N)N)C(=O)N[C@H](C(=O)N[C@@H](CCCN=C(N)N)C(=O)N[C@@H](C)C(=O)N[C@@H](CO)C(=O)N[C@@H](C)C(=O)O)C(C)C [QKKIRVRASA] | MIC [4]: > 55.3 µM
6 µM (≈ 9.9 µg/mL) | 3 (≈ 4.95 µg/mL) | – | CC(C)[C@H](NC(=O)[C@H](CCCN=C(N)N)NC(=O)[C@@H](N)Cc1ccccc1)C(=O)N[C@H](C(=O)N[C@@H](Cc1c[nH]c2ccccc12)C(=O)N[C@@H](CCCN=C(N)N)C(=O)N[C@H](C(=O)N[C@@H](CCCCN)C(=O)N[C@@H](Cc1c[nH]c2ccccc12)C(=O)N[C@@H](Cc1c[nH]c2ccccc12)C(=O)N[C@@H](CCCCN)C(=O)NCC(N)=O)[C@@H](C)O)[C@@H](C)O [FRVTWRTKWWKG] | –
4 µM (≈ 7.51 µg/mL) | – | – | CC(C)C[C@H](NC(=O)[C@H](Cc1ccccc1)NC(=O)[C@@H]1CCCN1C(=O)[C@H](Cc1ccc(O)cc1)NC(=O)[C@H](Cc1c[nH]c2ccccc12)NC(=O)[C@H](Cc1c[nH]c2ccccc12)NC(=O)[C@@H]1CCCN1C(=O)[C@H](Cc1ccccc1)NC(=O)[C@H](CCCN=C(N)N)NC(=O)[C@H](CCCN=C(N)N)NC(=O)[C@@H](N)C(C)C)C(=O)N[C@@H](CCCN=C(N)N)C(=O)N[C@@H](CCCN=C(N)N)C(N)=O [VRRFPWWYPFLRR] | –
10 µM (≈ 16.6 µg/mL) | – | – | CC[C@H](C)[C@H](NC(=O)[C@H](CCCN=C(N)N)NC(=O)[C@H](CCC(N)=O)NC(=O)[C@@H](NC(=O)CNC(=O)[C@H](CCCN=C(N)N)NC(=O)[C@H](CCCCN)NC(=O)[C@@H](N)Cc1ccccc1)C(C)C)C(=O)N[C@@H](CCCCN)C(=O)N[C@@H](CC(=O)O)C(=O)N[C@@H](Cc1ccccc1)C(=O)N[C@@H](CC(C)C)C(=O)N[C@@H](CCCN=C(N)N)C(=O)O [FKRGVQRIKDFLR] | MIC [4]: > 40 µM
13.5 µM (≈ 16 µg/mL) | – | 13.5 (≈ 16 µg/mL) | CC[C@H](C)[C@H](NC(=O)[C@H](CCCCN)NC(=O)[C@H](CCCCN)NC(=O)[C@@H](N)CCC(N)=O)C(=O)N[C@@H](CCCN=C(N)N)C(=O)N[C@H](C(=O)N[C@@H](CCCN=C(N)N)C(=O)N[C@@H](CC(C)C)C(=O)N[C@@H](C)C(=O)N[C@@H](C)C(=O)O)C(C)C [QKKIRVRLAA] | MIC [4]: > 54.1 µM
> 100 µM | – | > 100 | CSCC[C@H](NC(=O)[C@H](CCCCN)NC(=O)[C@H](CCCCN)NC(=O)[C@H](CCCCN)NC(=O)[C@@H](N)CCCN=C(N)N)C(=O)N[C@@H](CCCCN)C(=O)N[C@@H](CCCCN)C(=O)N[C@@H](C)C(=O)N[C@@H](CC(C)C)C(=O)N[C@@H](CCC(N)=O)C(=O)N[C@@H](Cc1ccc(O)cc1)C(N)=O [RKKKMKKALQY] | –
– | 14.3 (≈ 16 µg/mL) | – | CC[C@H](C)[C@H](NC(=O)[C@H](CCCCN)NC(=O)[C@H](CC(C)C)NC(=O)[C@@H](N)Cc1ccccc1)C(=O)N[C@@H](CC(C)C)C(=O)N[C@@H](CCCCN)C(=O)N[C@@H](CCCCN)C(=O)N[C@@H](CC(C)C)C(=O)N[C@@H](CC(C)C)C(N)=O [FLKILKKLL] | –
– | 5.6 (≈ 11.9 µg/mL) | 11.2 (≈ 23.9 µg/mL) | CC[C@H](C)[C@H](NC(=O)CN)C(=O)NCC(=O)N[C@@H](C)C(=O)N[C@H](C(=O)N[C@@H](CC(C)C)C(=O)N[C@@H](CCCCN)C(=O)N[C@H](C(=O)N[C@@H](CC(C)C)C(=O)N[C@@H](C)C(=O)N[C@@H](CC(C)C)C(=O)N[C@H](C(=O)N[C@@H](CO)C(=O)N[C@@H](Cc1c[nH]c2ccccc12)C(=O)N[C@H](C(=O)N[C@@H](CCCCN)C(=O)N[C@@H](CCCN=C(N)N)C(=O)N[C@@H](CCCCN)C(=O)N[C@@H](CCCN=C(N)N)C(N)=O)[C@@H](C)CC)[C@@H](C)CC)C(C)C)C(C)C [GIGAVLKVLALISWIKRKR] | MIC (Escherichia coli): 11.2 µM (≈ 23.9 µg/mL)
